Data set [1] has as its system primary porcine brain endothelial cells (PBECs). Kind of data set: Porcine BBB model transport assay. To be noted: porcine vs human.
In data set [2] the test system is hiPSC-derived BMECs. Kind of data set: Human BBB model permeability, clone not specified or both clones. To be noted: for Permeability classification in words: human BBB model, for several compounds stated for both human and porcine models.
Data set [3] is described as follows: Permeability assay across hiPSC-derived BMECs clone 1 on Transwell, co-culture with human astrocytes.
Data set [4] relates to hiPSC-derived BMECs.
For data set [5], the system named is hiPSC-derived BMECs (IMR-90). Conditions: cited from earlier work.
Data set [6] is described as follows: in vitro. Conditions: human.
Data set [7] in a line: in vitro. To be noted: human. This is another data set of the same source.
Data set [8] in a line: Permeability assay across hiPSC-derived BMECs clone 2 on Transwell, co-culture with human astrocytes.
The test system of data set [9] is primary porcine brain endothelial cells (PBECs). To be noted: cited from earlier work.
Data set [10] in a line: Human BBB model permeability, clone not specified or both clones. To be noted: human.
Data set [11] concerns hiPSC-derived BMECs (Cl1). Kind of data set: Permeability assay across hiPSC-derived BMECs clone 1 on Transwell, co-culture with human astrocytes.
Data set [12] has as its system hiPSC-derived BMECs (Cl1).
The subject of data set [13] is hiPSC-derived BMECs (r-iSPC 1j cells). On the set-up: method as in Delsing et al. 34. Conditions: ref Delsing et al. 34; cited from earlier work.
Data set [14] has as its system hiPSC-derived BMECs. To be noted: ref Lippmann 6; cited from earlier work.
Data set [15] concerns human endothelial cell line hCMEC/D3. Further details: method as in PMID 30374619. Conditions: cited from earlier work.
The subject of data set [16] is hiPSC-derived BMECs (Cl2).

Where two headings read alike, the source gives them in different places.

As usually defined, the Papp is the rate of passage across a membrane or cell layer, normalised by area and donor concentration. The low end stands for poor permeation, the high end for ready permeation. Broadly, the Papp B→A is how fast a substance crosses the layer from the basolateral side. Broadly, the Papp A→B is the apparent permeability from the apical to the basolateral side of a cell layer. A high value points to ready permeation. What is called efflux ratio is a quotient of directional permeabilities that is used to spot active efflux.

The compound `CC(C)[C@H](NC(=O)[C@H](CCC(=O)O)NC(=O)[C@H](Cc1ccccc1)NC(=O)[C@@H](C)NC(=O)[C@@H](N)Cc1ccc(O)cc1)C(=O)N[C@H](C(=O)NCC(N)=O)C(C)C` [[D-Ala2]deltorphin II] returned a Papp of 77 ± 17 nm/s. Moreover, the “Fold higher permeability in the porcine than in the human model” value in [1] is reported as “two-fold”. Moreover, the “Permeability classification in words” value in the data set on hiPSC-derived BMECs [2] is reported as “moderate permeability”. In addition, the Papp in [3] amounted to 38 ± 5 nm/s.
Consider `Cn1c(=O)c2c(ncn2C)n(C)c1=O` [caffeine], for which the “Permeability classification in words” value with hiPSC-derived BMECs [4] is “highly permeable”. Moreover, in data set [5] (IMR-90 cells, ref Appelt-Menzel et al. 36), the Published permeability was 253 nm/s. For the same compound, the Papp in the data set “in vitro [6]” (Permeability human BBB_Cl1) was 307 ± 20 nm/s; in the data set “in vitro [7]”, 270 to 310 nm/s; in data set [8], 265 ± 6 nm/s.
Turning to `CCC(=O)CCCCCC(NC(=O)C1CN(C)C1)c1ncc(-c2cc3ccccc3nc2OC)o1` (stereo not shown) [cpK], the “Permeability porcine BBB” value in data set [9] is listed as 10.5 ± 3.4 x10^-6 cm/s. Moreover, in [10], the Papp amounted to 154 ± 83 nm/s. Moreover, the “Permeability classification in words” value in the data set on hiPSC-derived BMECs [2] was “medium permeability”.
For the compound `COc1cccc2c1C(=O)c1c(O)c3c(c(O)c1C2=O)C[C@@](O)(C(C)=O)C[C@@H]3O[C@H]1C[C@H](N)[C@H](O)[C@H](C)O1` [daunomycin], in the data set with hiPSC-derived BMECs [4], the “Fold higher permeability in the human than in the porcine model” value is “two-fold”. Moreover, the “Permeability classification in words” value in the data set with hiPSC-derived BMECs [4] is “medium permeability”. Further, the Papp is 93 ± 27 nm/s in the data set “in vitro [6]” (Permeability human BBB_Cl1), 70 to 90 nm/s in “in vitro [7]” and 65 ± 7 nm/s in data set [8].
`C[C@H]1O[C@@H](O[C@H]2[C@@H](O)C[C@H](O[C@H]3[C@@H](O)C[C@H](O[C@H]4CC[C@@]5(C)[C@H](CC[C@@H]6[C@@H]5C[C@@H](O)[C@]5(C)[C@@H](C7=CC(=O)OC7)CC[C@]65O)C4)O[C@@H]3C)O[C@@H]2C)C[C@H](O)[C@@H]1O` [digoxin] yielded a Papp B→A in “in vitro [6]” of 73 ± 6 nm/s.
For `NCC1(CC(=O)O)CCCCC1` [gabapentin], the results for the Papp (in the data set “in vitro [7]”; in [3] (human)) were 120 nm/s and 119 ± 29 nm/s, respectively. Moreover, the “Permeability classification in words” value in the data set on hiPSC-derived BMECs [2] is “moderate to high permeability”.
In the case of `OC[C@H]1OC(O)[C@H](O)[C@@H](O)[C@@H]1O` (stereo partly shown) [glucose], the “Fold higher permeability in the human than in the porcine model” value in the data set with hiPSC-derived BMECs [4] (human and pig) is “more than 3.5”. For the same compound, the Papp stood at 250 ± 27 nm/s in “in vitro [6]” (Permeability human BBB_Cl1) and 252 ± 79 nm/s in [8]. Moreover, the “Permeability in the porcine model” value in data set [9] was 70 nm/s. Also, the “Inhibition of transport by phloretin” value in data set [11] (200 µM phloretin) is reported as around 80%.
As for `O=C(O)c1cc(=O)c2ccccc2[nH]1` [kynurenic acid], the “Permeability classification in words” value with hiPSC-derived BMECs [4] is listed as “low permeability”. Besides, the Papp in the data set “in vitro [6]” (Permeability human BBB_Cl1) stood at 3.2 ± 0.6 nm/s; in the data set “in vitro [7]”, 3 nm/s. The “Permeability in porcine (unit not given)” value in data set [9] (porcine model) is on record as 2.8.
As for `CC(C)C[C@H](N)C(=O)O` [leucine], the “Vectorial transport, AB direction over BA direction” value in data set [12] is reported as “three-fold”. In the data set on hiPSC-derived BMECs [4], the “Fold higher permeability in the human than in the porcine model” value is “about three-fold” and the “Permeability classification in words” value was “highly permeable”. In the data set “in vitro [6]”, this compound registered a Papp A→B of 185 ± 22 nm/s and a Papp B→A of 64 ± 7 nm/s. The compound further came in with a Papp in “in vitro [6]” (Permeability human BBB_Cl1) of 180 ± 18 nm/s. In the data set “in vitro [7]”, this compound gave a Papp of 180 to 200 nm/s. The “Reduction of transport in the presence of JPH203” value in [11] (10 µM JPH203, selective LAT1 inhibitor) is recorded as “about 70%”. In data set [8], this compound came in with a Papp of 199 ± 64 nm/s.
Regarding `OC[C@@H](O)[C@@H](O)[C@H](O)[C@H](O)CO` [mannitol], the Papp in the data set “in vitro [6]” (Permeability fresh) is 5.6 ± 2.8 nm/s; in “in vitro [6]” (Permeability frozen), 6.7 ± 2.5 nm/s; in the data set “in vitro [6]” (Permeability human BBB_Cl1), 6 ± 2.4 nm/s; in [8] it was 8 ± 1 nm/s.
As to `CN(Cc1cnc2nc(N)nc(N)c2n1)c1ccc(C(=O)N[C@@H](CCC(=O)O)C(=O)O)cc1` [methotrexate], the figures for the Papp (in “in vitro [6]” (Permeability human BBB_Cl1); in data set [8]) were 6.5 ± 1.2 nm/s and 7.7 ± 1 nm/s, respectively. Further, the “Fold higher permeability in the porcine than in the human model” value in data set [1] is “eight times”.
As for `N[C@@H](Cc1ccccc1)C(=O)O` [phenylalanine], in the data set with hiPSC-derived BMECs [2] (human vs porcine), the “Fold higher permeability in the human than in the porcine model” value is “two-fold”. Moreover, the Papp in [8] was 286 ± 57 nm/s.
In the case of `O=C1NC(=O)C(c2ccccc2)(c2ccccc2)N1` [phenytoin], the Published permeability in data set [13] is 356 nm/s. In addition, the Papp in data set [10] was 190 to 210 nm/s; in [3] (human, Permeability human BBB_Cl1, Figure 5C, mean ± sd), 213 ± 21 nm/s; in [8], 186 ± 9 nm/s. The “Permeability classification in words” value with hiPSC-derived BMECs [2] is “highly permeable”.
In the case of `COc1cc2nc(N3CCN(C(=O)c4ccco4)CC3)nc(N)c2cc1OC` [prazosin], the results for the Published permeability (in data set [5] (ref Kurosawa 20); in the data set with hiPSC-derived BMECs [14]) were 87 nm/s and 43 nm/s, respectively.
Turning to `CC(C)C[C@H](CN)CC(=O)O` [pregabalin], the “Inhibition in the uptake after LAT-1 mRNA silencing” value in data set [15] is listed as 75%.
Consider `CC(C)NCC(O)COc1cccc2ccccc12` (stereo not shown) [propranolol], for which the “Permeability classification in words” value in the data set with hiPSC-derived BMECs [4] is listed as “highly permeable”. In addition, the Published permeability in [13] is 226 nm/s; in data set [5] (ref Mantle et al. 35) it was “around 30 × 10^−6 cm/s”. The Papp is 258 ± 46 nm/s in “in vitro [6]” (Permeability human BBB_Cl1), 220 to 260 nm/s in the data set “in vitro [7]” and 220 ± 24 nm/s in data set [8].
On to `CC(=O)O[C@H]1C(=O)[C@@]2(C)[C@H]([C@H](OC(=O)c3ccccc3)[C@]3(O)C[C@H](OC(=O)[C@H](O)[C@@H](NC(=O)c4ccccc4)c4ccccc4)C(C)=C1C3(C)C)[C@]1(OC(C)=O)CO[C@@H]1C[C@@H]2O` [taxol], for which, in the data set “in vitro [6]”, the Papp A→B came out at 63 ± 6 nm/s, the Papp B→A turned out to be 154 ± 5 nm/s and the efflux ratio turned out to be 2.4. This compound also had a Papp in the data set “in vitro [6]” (Permeability human BBB_Cl1) of 68 ± 7 nm/s. In data set [8], this compound had a Papp of 49 ± 10 nm/s.
For the compound `CC[C@]1(O)C[C@@H]2CN(CCc3c([nH]c4ccccc34)[C@@](C(=O)OC)(c3cc4c(cc3OC)N(C)[C@H]3[C@@](O)(C(=O)OC)[C@H](OC(C)=O)[C@]5(CC)C=CCN6CC[C@]43[C@@H]65)C2)C1` [vinblastine], in the data set with hiPSC-derived BMECs [4], the “Fold higher permeability in the human than in the porcine model” value was “two-fold” and the “Permeability classification in words” value is “medium permeability”. The efflux ratio in “in vitro [6]” is 1.5. Moreover, the Papp in the data set “in vitro [6]” (Permeability human BBB_Cl1) was 41 ± 4 nm/s. Moreover, the Papp in data set [8] is 35 ± 8 nm/s.
Regarding lucifer yellow, in data set [12], the “Permeability A-B” value is reported as 0.15 ± 0.001 x10^-6 cm/s, the “Permeability B-A” value is 0.13 ± 0.004 x10^-6 cm/s, the Permeability fresh is 0.21 ± 0.12 x10^-6 cm/s and the Permeability frozen is 0.09 ± 0.04 x10^-6 cm/s. For the same compound, in [12], the “Permeability human BBB_Cl1” value is reported as 0.18 ± 0.11 x10^-6 cm/s and the efflux ratio stood at 0.9. Further, the “Permeability human BBB_Cl2” value in data set [16] was 0.33 ± 0.30 x10^-6 cm/s.

The record behind these values is publication PMC7226989, “Establishment of an in Vitro Human Blood-Brain Barrier Model Derived from Induced Pluripotent Stem Cells and Comparison to a Porcine Cell-Based System” (Cells, 2020).
